Test results as given in PMC4697807, “Novel Zn^2+ Modulated GPR39 Receptor Agonists Do Not Drive Acute Insulin Secretion in Rodents” (PLoS ONE, 2015).
Read-outs that look alike come from different tables or passages of the source.

Legend:
[1] = biological target: T1, GPR39 (NIT-1 cells) (Mus musculus, UniProt Q5U431); assay: IP1 assay in NIT-1 cells endogenously expressing GPR39; type: cell-based; conditions: for Emax: read-out: Emax relative to the 100% efficacy reference AZ1395
T1 construct: NIT-1 cells endogenously expressing GPR39; endogenous in cells; host or cells: NIT-1 (ATCC CRL-2055)
T1 sequence (Q5U431 1-456): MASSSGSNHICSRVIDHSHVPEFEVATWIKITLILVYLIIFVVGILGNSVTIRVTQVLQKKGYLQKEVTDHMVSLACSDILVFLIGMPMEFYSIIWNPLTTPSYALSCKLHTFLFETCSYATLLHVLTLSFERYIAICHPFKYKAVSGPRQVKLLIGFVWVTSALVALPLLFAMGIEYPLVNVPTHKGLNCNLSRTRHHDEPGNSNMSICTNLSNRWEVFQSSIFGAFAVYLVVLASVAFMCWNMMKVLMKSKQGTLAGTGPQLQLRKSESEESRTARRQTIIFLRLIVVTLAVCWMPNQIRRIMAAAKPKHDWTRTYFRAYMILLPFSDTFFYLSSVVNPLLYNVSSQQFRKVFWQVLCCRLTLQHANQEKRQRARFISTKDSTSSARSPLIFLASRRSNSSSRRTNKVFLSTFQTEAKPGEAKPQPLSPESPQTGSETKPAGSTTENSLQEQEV
Text: Full length human (AF034633), rat (DM091294) and mouse (BC085285) GPR39 (GeneArt–Life Technologies, Carlsbad, CA) were subcloned into the pIRESneo3 vector (Clontech, Mountain View, CA). The resulting expression vectors hGPR39-, rGPR39- and mGPR39-pIRESneo3 were transfected into HEK293s cells (ATCC CRL-1573) using Lipofectamine 2000 (Life Technologies). Individual clones were isolated using flow cytometry with a FACSVantage SE DIVA (Becton Dickinson, Franklin Lakes, NJ) and clones were chosen based on responses to Zn^2+ measured in a cAMP assay (see below). […] HEK293s-derived cell lines were cultured at 37°C, 10% CO2 and 95% humidity in DMEM supplemented with 10% FBS and 600 μg/ml Geneticin (Life Technologies). The mouse pancreas epithelial cell line NIT-1 (ATCC CRL-2055) with endogenous expression of GPR39 was cultured at 37°C, 5% CO2, and 95% humidity in Ham´s F12 (Life Technologies) supplemented with 10% FBS.
IP1 assays were performed using IP-One Tb kits (CisBio). IP1 production was detected by HTRF as described above. Buffers and reagents were according to manufacturers’ protocols except LiCl concentrations in stimulation buffer which were 50 mM in assays employing HEK293s-hGPR39 cells and 20 mM in assays using NIT-1 cells. For assays using HEK293s-hGPR39 cells, 12,500 cells per well were dispensed into small-volume 384-well plates (Greiner) and IP1 production was stimulated in the presence of compounds for 30 min at 37 °C in a total volume of 20 μl. For assays using NIT-1 cells, 25,000 cells per well were seeded into poly-D-lysine coated 384-well plates (Becton-Dickinson) and cultured in Ham´s F12 medium with 10% FBS. After 48 h, cells were washed with stimulation buffer and IP1 production stimulated in the presence of compounds for 45 min at 37 °C in a total volume of 60 μl.
Concentration response data were fitted with a four parameter logistic fit using Eq 1, y=A+((B−A)/1+((C/x)^D))) (1) where A is no activation, B is full activation, C is the EC50 and D is the Hill slope.

[2] = Isothermal titration calorimetry (ITC) of compound with ZnCl2; conditions: ITC at 30°C; single site binding model; ± SD; read-out: K D (Zn^2+-interaction)
Method: To determine the binding affinities of the discussed compounds for Zn^2+, isothermal titration calorimetry experiments were conducted on a MicroCal ITC-200 system (Malvern Instruments) at a temperature of 30°C. The compounds, provided as a DMSO stock solution of 10 mM, were diluted in 50 mM HEPES (pH 7.4) and 150 mM NaCl to reach a final nominal concentration of 400 μM (= 4% (v/v) final DMSO concentration). Complete titration of the compounds was typically achieved by injecting 27 x 1.3 μl aliquots of 5 mM ZnCl2 provided in a matching buffer. The thermodynamic binding parameters were extracted by non-linear regression analysis of the binding isotherms (Microcal Origin version 7.0 software package). A single site binding model was applied, yielding binding enthalpy (ΔH), stoichiometry (n), entropy (ΔS), and association constant (Ka). All experiments have been performed in triplicate to allow for error estimations.

[3] = absence (w/o) of Zn^2+, read-out: EC50
[4] = presence of 5 μM Zn^2+, read-out: EC50

For `N#Cc1ccc(OCCn2ccnc2)c(OCCn2ccnc2)c1` [AZ1395, 3,4-bis-(2-imidazol-1-ylethoxy)-benzonitrile], the “Efficacy at 33 μM” value ([1]; absence (w/o) of Zn^2+) was 0%, the EC50 [1, 3] was greater than 33 µM and the “Efficacy at 33 μM” value ([1]; presence of 5 μM Zn^2+) was 100%. It also gave an EC50 [1, 4] greater than 33 µM and a Kd [2] of 52.1 ± 9.1 µM.
For `Cc1nc2c(C(=O)O)cnn2c(O)c1Cc1ccc(Cl)cc1` [AZ4237, 6-[(4-chlorophenyl)methyl]-7-hydroxy-5-methyl-pyrazolo[1,5-a]pyrimidine-3-carboxylic acid], the “Efficacy at 33 μM” value ([1]; absence (w/o) of Zn^2+) was 8%, the EC50 [1, 3] was greater than 33 µM and the Emax ([1]; presence of 5 μM Zn^2+) was 50%. For the same molecule, the EC50 ([1]; presence of 5 μM Zn^2+, read-out: pEC50 ± SD (converted)) was 0.24 µM and the Kd [2] was 8.72 ± 1.06 µM.
In the case of `Cc1nc(-c2nc3c(c(=O)[nH]2)CN(C(=O)c2cccc(Cl)c2F)CC3)cs1` [AZ7914, 6-(3-chloro-2-fluoro-benzoyl)-2-(2-methylthiazol-4-yl)-3,5,7,8-tetrahydropyrido-[4,3-d]pyrimidin-4-one], the “Efficacy at 33 μM” value ([1]; absence (w/o) of Zn^2+) is reported as 9%, the EC50 [1, 3] is reported as greater than 33 µM and the EC50 [1, 4] is reported as 0.65 µM. It also gave an Emax ([1]; presence of 5 μM Zn^2+) of 47% and a Kd [2] of 30.6 ± 19.1 µM.
In the case of `[Zn+2]` [Zn^2+], the “Efficacy at 33 μM” value ([1]; Zn^2+ by itself) is reported as 0%, the agonistic effects ([1]; Zn^2+ by itself) is reported as “no agonistic effects” and the EC50 ([1]; Zn^2+ by itself, read-out: EC50) is reported as greater than 33 µM.
